This is an account of results in US10052330B2, “Substituted pyrido[3,4-b]pyrazines as Syk inhibitors” (HUTCHISON MEDIPHARMA LIMITED, priority 2011, dated 2018).

Structures are written as SMILES.

This experiment has as its target Syk kinase (Homo sapiens, UniProt P43405). Kind of experiment: Syk kinase enzymatic assay (Kit-Tyr 2 Peptide). It counts as biochemical. To be noted: 8 concentrations, 1 μM down to 0.0003 μM; upper bound of each range is 'less than'; read-out: IC50: Enzymatic Activity (Syk kinase).
`NC1CCN(c2nc(-c3ccc(N4CCOCC4)cc3)cc3nccnc23)CC1` [Compound 7]: the IC50 (as a rule, the concentration that inhibits the measured activity by half) lay within 100 to 1000 nM.

As for `CS(=O)(=O)N1CCC(n2cc(-c3cc4nccnc4c(NC[C@@H]4CNCCO4)n3)cn2)CC1` [Compound 431], the IC50 lay within 1 to 100 nM.

As to `c1cnc2c(NC[C@@H]3CNCCO3)nc(-c3ccc4c(c3)OCCO4)cc2n1` [Compound 244], the IC50 is 100 to 1000 nM.

On to `Fc1cc(-c2cc3nccnc3c(NCC3CNCC(F)(F)C3)n2)ccc1N1CCOCC1` (stereo not drawn) [Compound 202], for which the IC50 lay in the range of 100 to 1000 nM.

`c1cnc2c(NC3CCCNC3)nc(-c3ccc(N4CCOCC4)cc3)cc2n1` (stereo not drawn) [Compound 27]: the IC50 lay in the range of 100 to 1000 nM.

With `F[C@]1(CNc2nc(-c3ccc(N4CCOCC4)nc3)cc3nccnc23)CCCNC1` [Compound 379, (R)—N-((3-fluoropiperidin-3-yl)methyl)-7-(6-morpholinopyridin-3-yl)pyrido[4,3-b]pyrazin-5-amine], the IC50 lay within 100 to 1000 nM.

Turning to `NC(=O)[C@H]1CC[C@@H](Nc2nc(-c3ccc(N4CCOCC4)cc3)cc3nccnc23)CC1` [Compound 363], the IC50 lay in the range of 100 to 1000 nM.

For the molecule `NC(=O)N1CCC(F)(F)C(CNc2nc(-c3ccc(N4CCOCC4)cc3)cc3nccnc23)C1` (stereo not drawn) [Compound 356], the IC50 lay in the range of 100 to 1000 nM.

For the molecule `CCn1cc(-c2cc3nccnc3c(NC[C@@H]3CNCCO3)n2)cn1` [Compound 209], the IC50 lay in the range of 100 to 1000 nM.

Take `NC(=O)N1CCCCC1CNc1nc(-c2ccc(N3CCOCC3)cc2)cc2nccnc12` (stereo not drawn) [Compound 354]: the IC50 is 100 to 1000 nM.

For `O=C(CO)N1CCO[C@H](CNc2nc(-c3ccc(N4CCOCC4)cc3)cc3nccnc23)C1` [Compound 337], the IC50 was in the range of 100 to 1000 nM.

Consider `CN1CCC(n2cc(-c3cc4nccnc4c(NC[C@@H]4CNCCO4)n3)cn2)CC1` [Compound 262], for which the IC50 was 100 to 1000 nM.

In the case of `Fc1cc(-c2cc3nccnc3c(NC[C@H]3CNCCC3(F)F)n2)ccc1N1CCOCC1` [Compound 369, (R)—N-((4,4-difluoropiperidin-3-yl)methyl)-7-(3-fluoro-4-morpholinophenyl)pyrido[4,3-b]pyrazin-5-amine], the IC50 lay within 100 to 1000 nM.

For the molecule `O=S(=O)(c1ccc(-c2cc3nccnc3c(NC[C@@H]3CNCCO3)n2)cc1)N1CCOCC1` [Compound 283], the half-inhibitory concentration (IC50) is 100 to 1000 nM.

Take `c1cc(-c2cc3nccnc3c(NCC3CCCNC3)n2)cc(N2CCOCC2)c1` (stereo not drawn) [Compound 14]: the IC50 lay in the range of 100 to 1000 nM.

Turning to `CN(C)S(=O)(=O)c1ccc(-c2cc3nccnc3c(NCC3CNCCO3)n2)cc1` (stereo not drawn) [Compound 227], the IC50 was in the range of 100 to 1000 nM.

`CN(C)CCOc1ccc(-c2cc3nccnc3c(NCC3CCCNC3)n2)cc1` (stereo not drawn) [Compound 90]: the IC50 was 1 to 100 nM.

In the case of `c1cnc2c(NCC3CCCNC3)nc(-c3ccc(N4CCNCC4)cc3)cc2n1` (stereo not drawn) [Compound 61], the IC50 is 1 to 100 nM.

Take `c1cnc2c(NC[C@@H]3CNCCO3)nc(-c3ccc(OC4CCOCC4)nc3)cc2n1` [Compound 271]: the IC50 lay in the range of 100 to 1000 nM.

Turning to `Cc1cc(-c2cc3nccnc3c(NCC3CNCC(F)(F)C3)n2)ccc1N1CCOCC1` (stereo not drawn) [Compound 201], the IC50 lay in the range of 100 to 1000 nM.

As for `CNc1ccc(-c2cc3nccnc3c(NCC3CNCC(F)(F)C3)n2)cc1F` (stereo not drawn) [Compound 207], the IC50 is 100 to 1000 nM.

Take `COc1cc(-c2cc3nccnc3c(NCCCN)n2)ccc1OCCN1CCOCC1` [Compound 198]: the IC50 lay in the range of 100 to 1000 nM.

On to `c1cnc2c(NC[C@@H]3CNCCO3)nc(-c3ccc(OCCN4CCOCC4)nc3)cc2n1` [Compound 263], for which the IC50 lay in the range of 100 to 1000 nM.

`CC(C)(F)C(=O)N1CCO[C@H](CNc2nc(-c3ccc(N4CCOCC4)cc3)cc3nccnc23)C1` [Compound 341]: the IC50 is 100 to 1000 nM.

On to `O=S1(=O)CCNCC1CNc1nc(-c2ccc(N3CCOCC3)c(F)c2)cc2nccnc12` (stereo not drawn) [Compound 483], for which the half-maximal inhibitory concentration (IC50) lay within 100 to 1000 nM.

For `CNC(=O)COc1cccc(-c2cc3nccnc3c(NCC3CCCNC3)n2)c1` (stereo not drawn) [Compound 49], the IC50 was 100 to 1000 nM.

As for `Cn1cc(-c2cc3nccnc3c(NC[C@@H]3CNCCO3)n2)cn1` [Compound 210], the IC50 lay within 100 to 1000 nM.
